{"source": "paper PMC12655351", "about": "“Synthesis and Anticancer Activity Evaluation of New 5-((5-Nitrofuran-2-yl)allylidene)-2-thioxo-4-thiazolidinones” (Pharmaceuticals, 2025)", "key": {"A498": {"system": "A498", "experiment": "cells", "conditions": "Homo sapiens, A498, 48 h"}, "NCI-H23": {"system": "NCI-H23", "conditions": "NCI-H23, 48 h"}, "CNS cancer": {"system": "CNS cancer", "conditions": "CNS cancer subpanel"}, "ACHN": {"system": "ACHN", "experiment": "NCI-60 SRB screen", "conditions": "48 h"}, "K-562": {"system": "K-562", "conditions": "K-562, 48 h"}, "HCC-2998": {"system": "HCC-2998", "experiment": "cells", "conditions": "Homo sapiens, HCC 2998, 48 h"}, "PC-3 [1]": {"system": "PC-3", "conditions": "PC-3, 48 h"}, "COLO 205": {"system": "COLO 205", "experiment": "cells", "conditions": "Homo sapiens, COLO 205, 48 h"}, "CAKI-1": {"system": "CAKI-1", "conditions": "CAKI-1, 48 h"}, "BT-549": {"system": "BT-549", "experiment": "cells", "conditions": "Homo sapiens, BT-549, 48 h"}, "NCI-H522": {"system": "NCI-H522", "experiment": "NCI-60 SRB screen", "conditions": "NCI-H522, 48 h"}, "PC-3 [2]": {"system": "PC-3", "experiment": "cells", "conditions": "Homo sapiens, PC-3, 48 h"}, "U251": {"system": "U251", "experiment": "NCI-60 SRB screen"}, "KM12": {"system": "KM12", "experiment": "NCI-60 SRB screen", "conditions": "KM12, 48 h"}, "SK-OV-3": {"system": "SK-OV-3", "experiment": "cells", "conditions": "Homo sapiens, SK-OV-3, 48 h"}, "TK-10": {"system": "TK-10", "conditions": "TK-10, 48 h"}, "SF-295": {"system": "SF-295", "experiment": "NCI-60 SRB screen", "conditions": "SF-295, 48 h"}, "SF-268": {"system": "SF-268", "experiment": "cells", "conditions": "Homo sapiens, SF-268, 48 h"}, "MALME-3M": {"system": "MALME-3M", "experiment": "NCI-60 SRB screen", "conditions": "48 h"}, "OVCAR-8": {"system": "OVCAR-8", "conditions": "OVCAR-8, 48 h"}, "[3]": {"system": "Non-small cell lung cancer", "conditions": "Non-small cell lung cancer subpanel"}, "MDA-MB-435": {"system": "MDA-MB-435", "experiment": "cells", "conditions": "Homo sapiens, MDA-MB-435, 48 h"}, "IGROV1": {"system": "IGROV1", "experiment": "NCI-60 SRB screen"}}, "data": [{"smiles": "CCCCC(C(=O)O)N1C(=O)/C(=C/C=C/c2ccc([N+](=O)[O-])o2)SC1=S", "note": "(centres unmarked) [6b, 2-((Z)-5-((E)-3-(5-nitrofuran-2-yl)allylidene)-4-oxo-2-thioxothiazolidin-3-yl)hexanoic acid]", "values": [{"measurement": "GI50", "setting": "A498", "result": 3.03, "unit": "µM"}, {"measurement": "TGI", "setting": "NCI-H23", "result": 3.51, "unit": "µM"}, {"measurement": "MG_MID TGI", "setting": "CNS cancer", "result": 4.58, "unit": "µM"}, {"measurement": "TGI", "setting": "ACHN", "result": 3.48, "unit": "µM"}, {"measurement": "GI50", "setting": "ACHN; Homo sapiens", "result": 1880, "unit": "nM"}, {"measurement": "CC50", "setting": "ACHN; Homo sapiens, read-out: LC50, ACHN, 48 h", "result": 6.47, "unit": "µM"}, {"measurement": "TGI", "setting": "K-562", "result": 10.5, "unit": "µM"}, {"measurement": "GI50", "setting": "HCC-2998", "result": 1830, "unit": "nM"}, {"measurement": "TGI", "setting": "PC-3 [1]", "result": 11.3, "unit": "µM"}, {"measurement": "GI50", "setting": "COLO 205", "result": 2020, "unit": "nM"}, {"measurement": "CC50", "setting": "COLO 205; read-out: LC50, COLO 205, 48 h", "result": 6.65, "unit": "µM"}, {"measurement": "TGI", "setting": "CAKI-1", "result": 3.29, "unit": "µM"}, {"measurement": "GI50", "setting": "BT-549", "result": 1490, "unit": "nM"}, {"measurement": "CC50", "setting": "BT-549; read-out: LC50, BT-549, 48 h", "result": 6.55, "unit": "µM"}, {"measurement": "GI50", "setting": "NCI-H522; Homo sapiens", "result": 1740, "unit": "nM"}, {"measurement": "CC50", "setting": "NCI-H522; Homo sapiens, read-out: LC50, NCI-H522, 48 h", "result": 6.78, "unit": "µM"}, {"measurement": "TGI", "setting": "NCI-H522", "result": 3.43, "unit": "µM"}, {"measurement": "GI50", "setting": "PC-3 [2]", "result": 3.05, "unit": "µM"}, {"measurement": "GI50", "setting": "U251; Homo sapiens, U-251, 48 h, U251, 48 h", "result": 1910, "unit": "nM"}, {"measurement": "CC50", "setting": "U251; Homo sapiens, U-251, 48 h, read-out: LC50, U251, 48 h", "result": 11, "unit": "µM"}, {"measurement": "TGI", "setting": "U251; U251, 48 h", "result": 4.42, "unit": "µM"}, {"measurement": "GI50", "setting": "KM12; Homo sapiens", "result": 1630, "unit": "nM"}, {"measurement": "TGI", "setting": "KM12", "result": 3.24, "unit": "µM"}, {"measurement": "GI50", "setting": "SK-OV-3", "result": 6.27, "unit": "µM"}, {"measurement": "CC50", "setting": "SK-OV-3; read-out: LC50, SK-OV-3, 48 h", "result": 46.7, "unit": "µM"}, {"measurement": "TGI", "setting": "TK-10", "result": 8.15, "unit": "µM"}, {"measurement": "GI50", "setting": "SF-295; Homo sapiens", "result": 2230, "unit": "nM"}, {"measurement": "CC50", "setting": "SF-295; Homo sapiens, read-out: LC50, SF-295, 48 h", "result": 13.5, "unit": "µM"}, {"measurement": "TGI", "setting": "SF-295", "result": 4.99, "unit": "µM"}, {"measurement": "GI50", "setting": "SF-268", "result": 2150, "unit": "nM"}, {"measurement": "CC50", "setting": "SF-268; read-out: LC50, SF-268, 48 h", "result": 16.8, "unit": "µM"}, {"measurement": "GI50", "setting": "MALME-3M; Homo sapiens, Malme-3M", "result": 2210, "unit": "nM"}, {"measurement": "CC50", "setting": "MALME-3M; Homo sapiens, Malme-3M, read-out: LC50, MALME-3M, 48 h", "result": 9.02, "unit": "µM"}, {"measurement": "TGI", "setting": "MALME-3M; MALME-3M", "result": 4.47, "unit": "µM"}, {"measurement": "TGI", "setting": "OVCAR-8", "result": 4.86, "unit": "µM"}, {"measurement": "MG_MID TGI", "setting": "[3]", "result": 6.45, "unit": "µM"}, {"measurement": "GI50", "setting": "MDA-MB-435", "result": 1810, "unit": "nM"}, {"measurement": "CC50", "setting": "MDA-MB-435; read-out: LC50, MDA-MB-435, 48 h", "result": 6.61, "unit": "µM"}, {"measurement": "GI50", "setting": "IGROV1; Homo sapiens, IGROV-1, 48 h, IGROV1, 48 h", "result": 2160, "unit": "nM"}, {"measurement": "CC50", "setting": "IGROV1; Homo sapiens, IGROV-1, 48 h, read-out: LC50, IGROV1, 48 h", "result": 18, "unit": "µM"}, {"measurement": "TGI", "setting": "IGROV1; IGROV1, 48 h", "result": 4.86, "unit": "µM"}]}]}
